Experimental data: ChEMBL document CHEMBL1201862, “PubChem BioAssay data set” (2004)
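Interpolation was linear, between the two tested concentrations surrounding the appropriate level; five concentrations were tested over 48 hours in 96-well plates. GI50 marks 50% less growth.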 Calls of active or inactive are those of the source. No stated cut-off is given here; in the data, active = GI50 up to about 1.1 µM and inactive = higher.

Columns and labels:
Assay in all cases: DTP human tumour cell line panel, 48 h
A498 = tested on: A498
CCRF-CEM = tested on: CCRF-CEM
COLO 205 = tested on: COLO 205
EKVX = tested on: EKVX
HCC 2998 = tested on: HCC 2998
HCT-116 = tested on: HCT-116
HL-60 = tested on: HL-60
KM12 = tested on: KM12
LOX IMVI = tested on: LOX IMVI
MOLT-4 = tested on: MOLT-4
Malme-3M = tested on: Malme-3M
NCI-H460 = tested on: NCI-H460
NCI-H522 = tested on: NCI-H522
OVCAR-4 = tested on: OVCAR-4
OVCAR-5 = tested on: OVCAR-5
SF-539 = tested on: SF-539
SK-MEL-28 = tested on: SK-MEL-28
SK-MEL-5 = tested on: SK-MEL-5
SNB-19 = tested on: SNB-19
ACHN = tested on: ACHN

Row | SMILES | GI50 (A498) | GI50 (CCRF-CEM) | GI50 (COLO 205) | GI50 (EKVX) | GI50 (HCC 2998) | GI50 (HCT-116) | GI50 (HL-60) | GI50 (KM12) | GI50 (LOX IMVI) | GI50 (MOLT-4) | GI50 (Malme-3M) | GI50 (NCI-H460) | GI50 (NCI-H522) | GI50 (OVCAR-4) | GI50 (OVCAR-5) | GI50 (SF-539) | GI50 (SK-MEL-28) | GI50 (SK-MEL-5) | GI50 (SNB-19) | GI50 (ACHN)
1 | Nc1ccn(C2OC(COP(=O)(O)Oc3ccccc3)C(O)C2O)c(=O)n1 (centres undefined) | 4.06 µM (inactive) | 1.01 µM (active) | 61.9 µM (inactive) | 13.5 µM (inactive) | > 100 µM (inactive) | 5.57 µM (inactive) | 61.2 µM (inactive) | > 100 µM (inactive) | 6.61 µM (inactive) | 0.979 µM (active) | > 35.3 µM (inactive) | 2.6 µM (inactive) | 16.6 µM (inactive) | > 100 µM (inactive) | > 100 µM (inactive) | 93.3 µM (inactive) | 9.38 µM (inactive) | > 42.9 µM (inactive) | > 59.4 µM (inactive) | 
2 | COc1ccc(N2NC(c3ccccc3)(c3ccccc3)C(C)C2=O)cc1 (centres undefined) | > 100 µM (inactive) | 35.6 µM (inactive) | 16 µM (inactive) | 68.7 µM (inactive) | > 100 µM (inactive) | 43 µM (inactive) | 35.3 µM (inactive) | 33 µM (inactive) | 44 µM (inactive) | 49.2 µM (inactive) | 61.7 µM (inactive) | 29.6 µM (inactive) | 43.9 µM (inactive) | > 100 µM (inactive) | 56.2 µM (inactive) | 85.1 µM (inactive) | > 100 µM (inactive) | 58.9 µM (inactive) | > 100 µM (inactive) | 42.7 µM (inactive)
3 | O=C(Nc1nnc(S)[nH]1)C(=O)C(c1cnc2ccc([N+](=O)[O-])cc2n1)[N+](=O)[O-] (centres undefined) | > 100 µM (inactive) | > 100 µM (inactive) | > 100 µM (inactive) | > 100 µM (inactive) | > 100 µM (inactive) | > 100 µM (inactive) | > 100 µM (inactive) | > 100 µM (inactive) | > 100 µM (inactive) | > 100 µM (inactive) | > 100 µM (inactive) | > 100 µM (inactive) | 16.2 µM (inactive) | > 100 µM (inactive) | > 100 µM (inactive) | > 100 µM (inactive) | > 100 µM (inactive) | > 100 µM (inactive) | > 100 µM (inactive) | 94.8 µM (inactive)
4 | Oc1ccc(Br)cc1/C=N/C1CCCCC1 | > 100 µM (inactive) | 5.37 µM (inactive) | 65.5 µM (inactive) | > 100 µM (inactive) | 25.5 µM (inactive) | 12.4 µM (inactive) | 4.81 µM (inactive) | 29.8 µM (inactive) | 13.3 µM (inactive) | 18.8 µM (inactive) | 27.6 µM (inactive) | 71.4 µM (inactive) | 55.3 µM (inactive) | 21.1 µM (inactive) | > 100 µM (inactive) | 38.7 µM (inactive) | 43.3 µM (inactive) | 19.2 µM (inactive) | 53 µM (inactive) | 65.5 µM (inactive)
5 | C[n+]1cccc2c(=O)c3ccccc3oc21 | > 100 µM (inactive) | > 100 µM (inactive) | > 100 µM (inactive) | > 100 µM (inactive) | > 100 µM (inactive) | > 100 µM (inactive) | > 100 µM (inactive) | > 100 µM (inactive) | > 100 µM (inactive) |  | > 100 µM (inactive) | > 100 µM (inactive) | > 100 µM (inactive) | > 100 µM (inactive) | > 100 µM (inactive) | > 100 µM (inactive) | > 100 µM (inactive) | > 100 µM (inactive) | > 100 µM (inactive) | > 100 µM (inactive)
6 | C=CCCCC12CCCc3cccc(c31)NC2=O (centres undefined) | 19.6 µM (inactive) | 16.9 µM (inactive) | 20.2 µM (inactive) | 19.1 µM (inactive) | 16.4 µM (inactive) | 13.6 µM (inactive) | 15.5 µM (inactive) | 17.4 µM (inactive) | 21.6 µM (inactive) | 18.8 µM (inactive) | 15.6 µM (inactive) | 16.8 µM (inactive) | 16.9 µM (inactive) | 18.9 µM (inactive) | 19.3 µM (inactive) | 19.6 µM (inactive) |  | 16.3 µM (inactive) | 23.4 µM (inactive) | 28.1 µM (inactive)
7 | OC(NN=C1CCCC1)(C(F)(F)Cl)C(F)(F)Cl | > 10 µM (inactive) | > 10 µM (inactive) | > 10 µM (inactive) | > 10 µM (inactive) | > 10 µM (inactive) | > 10 µM (inactive) | > 10 µM (inactive) | > 10 µM (inactive) | > 10 µM (inactive) | > 10 µM (inactive) | > 10 µM (inactive) | > 10 µM (inactive) | > 10 µM (inactive) | > 10 µM (inactive) | > 10 µM (inactive) | > 10 µM (inactive) | > 10 µM (inactive) | > 10 µM (inactive) | > 10 µM (inactive) | > 10 µM (inactive)
8 | CCCCCCCCCCNC(=O)CCC(NC(=O)c1ccc(N(C)Cc2cnc3nc(N)nc(N)c3n2)cc1)C(=O)NCCCCCCCCCC (centres undefined) | 30.5 µM (inactive) | 2.53 µM (inactive) | 7.01 µM (inactive) | 12.3 µM (inactive) | 5.75 µM (inactive) | 3.71 µM (inactive) | 3.4 µM (inactive) | 4.89 µM (inactive) | 2.36 µM (inactive) | 2.99 µM (inactive) | 12.4 µM (inactive) | 4.06 µM (inactive) | 4.43 µM (inactive) | 8.99 µM (inactive) | 23.8 µM (inactive) | 5.13 µM (inactive) | 8.79 µM (inactive) | 3.9 µM (inactive) | 9.46 µM (inactive) | 44.7 µM (inactive)
9 | COc1ccc(C2=Nn3c(nnc(Cc4ccc(Cl)cc4)c3=O)SC2)cc1 | 30.8 µM (inactive) | 38.3 µM (inactive) | 50.8 µM (inactive) | 52.2 µM (inactive) | 55.1 µM (inactive) | 28.1 µM (inactive) | 32.8 µM (inactive) | 35.8 µM (inactive) | 34.9 µM (inactive) | 26.7 µM (inactive) | > 100 µM (inactive) | 37.8 µM (inactive) | 42.4 µM (inactive) | 42.9 µM (inactive) | > 100 µM (inactive) | 37.8 µM (inactive) | 74.6 µM (inactive) | 75.3 µM (inactive) | 53.2 µM (inactive) | 64.7 µM (inactive)
10 | COc1ccc(N2C(=O)C(=O)N(C)C2=O)c2ccccc12 | > 10 µM (inactive) | > 10 µM (inactive) | > 10 µM (inactive) | > 10 µM (inactive) | > 10 µM (inactive) | > 10 µM (inactive) | > 10 µM (inactive) | > 10 µM (inactive) | > 10 µM (inactive) | > 10 µM (inactive) | > 10 µM (inactive) | > 10 µM (inactive) | > 10 µM (inactive) | > 10 µM (inactive) | > 10 µM (inactive) | > 10 µM (inactive) | > 10 µM (inactive) | > 10 µM (inactive) | > 10 µM (inactive) | > 10 µM (inactive)
11 | CCN(CC)CCn1c(=O)c2c(C)c3oc4ccccc4oc3c(C)c2c1=O | > 100 µM (inactive) | > 100 µM (inactive) | > 100 µM (inactive) | > 100 µM (inactive) | > 100 µM (inactive) | > 100 µM (inactive) | > 100 µM (inactive) | > 100 µM (inactive) | > 100 µM (inactive) | > 100 µM (inactive) | > 100 µM (inactive) | > 100 µM (inactive) | > 100 µM (inactive) | > 100 µM (inactive) | > 100 µM (inactive) | > 100 µM (inactive) |  | > 100 µM (inactive) | > 100 µM (inactive) | > 100 µM (inactive)
12 | CC(=O)OC(/C=C1/C=CC(=O)O1)COC(=O)c1ccccc1 (centres undefined) [ACETYLMELODORINOL] | > 31.2 µM (inactive) | > 31.2 µM (inactive) | > 31.2 µM (inactive) | > 31.2 µM (inactive) | > 31.2 µM (inactive) | > 31.2 µM (inactive) | > 31.2 µM (inactive) | > 31.2 µM (inactive) | > 31.2 µM (inactive) |  | > 31.2 µM (inactive) | > 31.2 µM (inactive) | > 31.2 µM (inactive) | > 31.2 µM (inactive) | > 31.2 µM (inactive) | > 31.2 µM (inactive) | > 31.2 µM (inactive) | > 31.2 µM (inactive) | > 31.2 µM (inactive) | > 31.2 µM (inactive)
13 | COC1=CC(=O)c2c(c(O)c3oc4cc(OC)cc(C)c4c(=O)c3c2O)C1=O [BIKAVERIN] | 1.37 µM (inactive) | 0.741 µM (active) | 20.3 µM (inactive) | 1.01 µM (active) | 9.91 µM (inactive) | 1.02 µM (active) | 0.386 µM (active) | 3.25 µM (inactive) | 0.535 µM (active) | 0.671 µM (active) | 1.17 µM (inactive) | 1.34 µM (inactive) | 0.716 µM (active) | 1.27 µM (inactive) | 1.97 µM (inactive) | 1.32 µM (inactive) | 2.03 µM (inactive) | 1 µM (active) | 2.28 µM (inactive) | 
